# Source: PubChem BioAssay AID2060509 (Molecular Pharmacology Branch, DTP, NCI, 2025)
# Tested on: 485176-168-R4-J1-PDC spheroids with HUVEC/MSC, viability
# Assay: Anticancer human tumor 485176-168-R4-J1-PDC patient-derived pancreatic adenocarcinoma cell line growth inhibition [GQUAD]
# Conditions: for IC50: curve of first compound; for viability, T/C: stronger effect = lower value
# Source text: DNA G-quadruplex Stabilizer Agents in Combinations in Complex Spheroids
# A high-throughput screen of multi-cell type tumor spheroids was designed to identify active combinations of DNA G-quadruplex stabilizer agents and targeted small molecules. Complex spheroids include a stromal component modeled by human endothelial cells (HUVEC) and fibroblasts modeled by human mesenchymal stem cells (MSCs). The concentration ranges selected for each drug and investigational agent were based upon clinically achievable concentrations if the clinical Cmax of the agent was known.
# Compounds. The drugs and investigational agents: pidnarulex (CX-5461; NSC782164), APTO-253 (NSC789042), BRACO-19 (NSC847499), peposertib (NSC802822), ceralasertib (NSC780249), elimusertib (NSC800525), camonsertib (NSC841442), AZD-1390 (NSC803789), olaparib (NSC753686), talazoparib (NSC767125), ART-558 (NSC835418), sotorasib (NSC818433), MRTX-1133 (NSC836407), SN-38 (NSC673596), topotecan (NSC609699), etoposide (NSC141540), doxorubicin (NSC123127), gemcitabine (NSC613327), 5-fluorouracil (NSC19893), paclitaxel (NSC125973), vemurafenib (NSC761431), panobinostat (NSC761190), R-306465 (JNJ-16241199; NSC773264), adavosertib (NSC754352), TP-3654 (NSC805149), carboplatin (NSC241240), KSQ-4279 (NSC840948), and staurosporine (NSC755774) were obtained from the National Cancer Institute (NCI) Developmental Therapeutics Program Chemical Repository (34). The FDA-approved anticancer drug set is available from the NCI Developmental Therapeutics Program. […] The stock solutions were prepared in dimethyl sulfoxide (DMSO, Sigma-Aldrich, St. Louis, MO, cat. D2650) at 800-fold the tested concentration and stored at -70 degrees C prior to their use. All drugs and investigational agents were tested over a range starting from a high concentration at or near the clinical Cmax and decreasing in half-log increments. If the clinical Cmax for an agent had not been determined, the highest concentration tested was 10 microM.
# 2.3 Cell Culture. All cells were maintained in an incubator at 37 degrees C and 5% CO2 with 95% humidity. The PDC lines were cultured according to standard operating procedures established by the NCI PDMR. All PDCs were thawed and cultured in Matrigel-coated flasks prepared with a working solution of 1X Ham's F-12 nutrient mix, without supplementation (Invitrogen, cat. 11765054), 100 U/mL penicillin-streptomycin (Invitrogen, cat. 15140122), and 2.5% Matrigel (Corning Inc., cat. 354248) for the first three passages. The 857933-349-R-J2-PDC line was cultured in 6C/Colon 1B media, which includes advanced DMEM/F-12 (Thermo Fisher Scientific, cat. 12634028), 10 mM HEPES (Thermo Fisher Scientific, cat. 15630080), 1X GlutaMAX supplement (Thermo Fisher Scientific, cat. 35050061), 0.1 mg/mL primocin (InvivoGen, cat. ant-pm-2), 10% defined fetal bovine serum, heat inactivated (HyClone Laboratories Inc., cat. SH30070.03HI), 50% L-WRN conditioned media (ATCC, cat. CRL-3276), 1.25 mM N-Acetyl-L-cysteine (Sigma-Aldrich, cat. A9165), 10 mM nicotinamide (Sigma-Aldrich, cat. N0636), 1X B-27 supplement (Thermo Fisher Scientific, cat. 17504044), 1X N-2 supplement (Thermo Fisher Scientific, cat. 17502048), 10 microM Y-27632 dihydrochloride (Tocris Bioscience, cat. 1254), and 50 ng/mL human EGF recombinant protein (Thermo Fisher Scientific, cat. PHG0311). The 485176-168-R4-J1-PDC line was cultured in Panc media, which includes all 6C/Colon 1B media components plus 100 ng/mL human FGF-10 (Thermo Fisher Scientific, cat. 100-26), 500 nM SB-431542 (Selleckchem, cat. S1067), and gastrin (Tocris, cat. 3006).
# […]
# 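Note: spheroids exposed to compounds for seven days before readout.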
# 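Throughout, for viability, T/C: percent viability relative to DMSO vehicle control wells as 100%.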
smiles,measurement,setting,value
CCCS(=O)(=O)Nc1ccc(F)c(C(=O)c2c[nH]c3ncc(-c4ccc(Cl)cc4)cc23)c1F + Cc1cnc(CNC(=O)c2c(=O)c3ccc(N4CCCN(C)CC4)nc3n3c2sc2ccccc23)cn1,IC50,second compound 0.0316 µM,> 10 µM
same,IC50,second compound 0.1 µM,> 10 µM
same,IC50,second compound 0.316 µM,> 10 µM
same,IC50,second compound 1 µM,< 0.0316 µM
same,IC50,second compound 3.16 µM,< 0.0316 µM
same,IC50,second compound 10 µM,< 0.0316 µM
same,"viability, T/C","second compound 0.0316 µM, first compound 0.0316 µM",95.8%
same,"viability, T/C","second compound 0.0316 µM, first compound 0.1 µM",77.4%
same,"viability, T/C","second compound 0.0316 µM, first compound 0.316 µM",82.9%
same,"viability, T/C","second compound 0.0316 µM, first compound 1 µM",81.8%
same,"viability, T/C","second compound 0.0316 µM, first compound 3.16 µM",92.8%
same,"viability, T/C","second compound 0.0316 µM, first compound 10 µM",66%
same,"viability, T/C","second compound 0.1 µM, first compound 0.0316 µM",63.8%
same,"viability, T/C","second compound 0.1 µM, first compound 0.1 µM",68.2%
same,"viability, T/C","second compound 0.1 µM, first compound 0.316 µM",60.2%
same,"viability, T/C","second compound 0.1 µM, first compound 1 µM",80.3%
same,"viability, T/C","second compound 0.1 µM, first compound 3.16 µM",76.3%
same,"viability, T/C","second compound 0.1 µM, first compound 10 µM",49.7%
same,"viability, T/C","second compound 0.316 µM, first compound 0.0316 µM",55.9%
same,"viability, T/C","second compound 0.316 µM, first compound 0.1 µM",55.3%
same,"viability, T/C","second compound 0.316 µM, first compound 0.316 µM",51.2%
same,"viability, T/C","second compound 0.316 µM, first compound 1 µM",56.4%
same,"viability, T/C","second compound 0.316 µM, first compound 3.16 µM",57.8%
same,"viability, T/C","second compound 0.316 µM, first compound 10 µM",49.9%
same,"viability, T/C","second compound 1 µM, first compound 0.0316 µM",45.4%
same,"viability, T/C","second compound 1 µM, first compound 0.1 µM",56.1%
same,"viability, T/C","second compound 1 µM, first compound 0.316 µM",47%
same,"viability, T/C","second compound 1 µM, first compound 1 µM",41.4%
same,"viability, T/C","second compound 1 µM, first compound 3.16 µM",48.9%
same,"viability, T/C","second compound 1 µM, first compound 10 µM",35.4%
same,"viability, T/C","second compound 3.16 µM, first compound 0.0316 µM",45.1%
same,"viability, T/C","second compound 3.16 µM, first compound 0.1 µM",43.5%
same,"viability, T/C","second compound 3.16 µM, first compound 0.316 µM",43.6%
same,"viability, T/C","second compound 3.16 µM, first compound 1 µM",44.3%
same,"viability, T/C","second compound 3.16 µM, first compound 3.16 µM",43.9%
same,"viability, T/C","second compound 3.16 µM, first compound 10 µM",40.9%
same,"viability, T/C","second compound 10 µM, first compound 0.0316 µM",39.1%
same,"viability, T/C","second compound 10 µM, first compound 0.1 µM",36.3%
same,"viability, T/C","second compound 10 µM, first compound 0.316 µM",30.1%
same,"viability, T/C","second compound 10 µM, first compound 1 µM",37.2%
same,"viability, T/C","second compound 10 µM, first compound 3.16 µM",39.6%
same,"viability, T/C","second compound 10 µM, first compound 10 µM",35.4%
